Experimental data taken from patent US20230255939A1, “Antimicrobial Agent for Non-Human Animal” (ISHIHARA SANGYO KAISHA, LTD, priority 2020, published 2023).
Values after ≈ are worked out from the molar mass of the structure shown. Like-named read-outs stand apart in the source and are kept apart here. Blank lines part the entries; values can stand above or below the compound they belong to.

Columns and labels:
[1] = test system: Microsporum canis (IFM63627); experiment: Antifungal activity test, minimum fungicidal concentration on spores (Test Example 8); assay type: cell-based; conditions: read-out: Minimum fungicidal concentration (MFC100)
Method: Test Example 8: Antifungal Activity Test
Test Compound: Compound No. 6
Test Microbial Strain: Microsporum Canis (IFM63627)
Microsporum canis was cultured at 32° C. for 168 hours in a ⅒ Sabouraud medium to form spores, then 10 mL of physiological saline (Otsuka Normal Saline; containing 9 g of sodium chloride in 1000 mL) was added directly onto the medium, and the surface was rubbed using a disposable loop (type 1 (1 µL)) to recover a spore suspension containing hyphae. The spore suspension containing hyphae was filtered through a cell strainer (φ40 µm). The spores were recovered from the filtrate by centrifugation (3500 rpm, 5 minutes) and washed twice with physiological saline, and then a spore suspension was prepared (1 × 10^7 spores/mL). 10 µL of the spore suspension was inoculated into 90 µL of physiological saline to which compound No. 6 dissolved in DMSO was added to have a predetermined concentration. […] The 10-µL spore suspension was spotted onto a Sabouraud medium and subjected to culturing at 32° C. for 72 hours, the presence or absence of colony growth was investigated, and the minimum fungicidal concentration (MFC100) was determined.

[2] = test system: Malassezia pachydermatis (ATCC14522 strain); experiment: Malassezia otitis externa effect test (dog) (Test Example 3); assay type: in vivo, dog (Beagle); design: Total score (redness, earwax, itching, rash) Immediately before treatment / Total score (redness, earwax, itching, rash) 7 Days after treatment: scale not given here; conditions: for Microbial count (cfu/ml) 7 Days after treatment: 500 ppm agent solution for 1 minute; for Microbial count (cfu/ml) Immediately before treatment: baseline before 500 ppm agent solution; for Total score (redness, earwax, itching, rash) 7 Days after treatment: 5 mL of 500 ppm agent solution for 1 minute; for Improvement rate (%) of microbial count / Improvement rate (%) of symptom total score: 500 ppm for 1 minute, 7 days after treatment; for Total score (redness, earwax, itching, rash) Immediately before treatment: baseline 7 days after inoculation, before 500 ppm agent solution
Method: Test Example 3: Malassezia Otitis Externa Effect Test (Dog) Test Variety: Beagle (19 to 20-Month-Old)
Test Microbial Strain: Malassezia Pachydermatis (ATCC14522 Strain)
A colony of the Malassezia microbe pre-cultured (7 days, 30° C.) on a Sabouraud agar medium was suspended in sterilized physiological saline (microbial concentration of 1.0 × 10^6 cells/mL), and 0.1 mL of the resulting suspension was inoculated into both ears of the test animal. 7 Days after the inoculation, both ears were filled with 5 mL of an agent solution (sterilized physiological saline solution supplemented with 5% DMSO) prepared to have a concentration of the test compound of 500 ppm, and after 1 minute, thoroughly washed with sterilized physiological saline solution.
At the same time, the number of the Malassezia microbe present inside the ears of the sample was also investigated by the following method.
The surface of the ear canal was scraped three times using a cotton swab to collect the microbe, and the collected microbe was suspended in 1 mL of PBS (containing 8 g of sodium chloride, 2.9 g of disodium hydrogen phosphate, 0.2 g of potassium chloride, and 0.2 g of potassium dihydrogen phosphate in 1000 mL) supplemented with 1% v/v of Tween80 (polyoxyethylene sorbitan monooleate: manufactured by Kanto Chemical Co., Ltd.) together with the cotton swab. The resulting suspension was serially diluted 10-fold with the PBS, and 0.1 mL thereof was applied to a CHROMagar Malassezia/Candida medium (trade name; peptone, special enzyme substrate mixture, chloramphenicol, olive oil, agar) and cultured at 30° C. for 4 days. After that, the colonies having a pink to purple color were counted, the microbial count score was calculated, and the improvement rate was determined.

[3] = test system: M. globosa (IMF51946 strain); experiment: Antimicrobial activity against microbes of genus Malassezia: colony formation inhibition (Test Example 2); assay type: cell-based; conditions: 1 min, final concentration 500 ppm, 1 minute contact, read-out: Colony formation inhibition rate (%)
Method: (§1) The Malassezia microbe (Malassezia pachydermatis) cultured for 5 to 7 days in a Sabouraud medium (1% peptone, 4% dextrin, 1.5% agar) supplemented with 0.5% of Tween 40 (polyoxyethylene sorbitan monopalmitate: manufactured by Kanto Chemical Co., Inc.) was suspended in physiological saline and a suspension thereof was prepared in such a way as to have an absorbance of 0.25 at 550 nm. Thereto, the test compound dissolved in DMSO was added in such a way as to provide a final concentration of 500 ppm, and after 1 minute, 10 µL of the suspension and 10 mL of physiological saline were placed in a syringe and stirred, and the syringe was connected to a 37 mm Quality Monitor (manufactured by Pall Corporation) followed by filtration and washing. The membrane filter was impregnated as it was with a Sabouraud medium supplemented with 1% of Tween80 (polyoxyethylene sorbitan monooleate: manufactured by Kanto Chemical Co., Ltd.) and subjected to culturing at 32° C. for 72 hours, the number of colonies formed there (number of colonies in the inventive plot) and the number of colonies in a solvent to which the test compound was not added (the number of colonies in the non-agent treated plot) were measured, and the colony formation inhibition rate (%) was determined according to the following expression. Colony formation inhibition rate (%) = [(number of colonies in non-agent treated plot - number of colonies in inventive plot)/number of colonies in non-agent treated plot] × 100 Test compound: Compound No. 1 (final concentration of 500 ppm) Test microbial strains: Malassezia pachydermatis (IFM56528 strain), M. furfur (IMF55951 strain), M. sympodialis (IMF48588 strain), M. globosa (IMF51946 strain), and M. restricta (IMF55992 strain) The colony formation inhibition rate for each of the test strains was determined by the same method as in Test Example 1.

[4] = test system: M. sympodialis (IMF48588 strain); experiment: as above; assay type: cell-based; conditions: 1 min, final concentration 500 ppm, 1 minute contact, read-out: Colony formation inhibition rate (%)
Method: as §1

[5] = test system: M. furfur (IMF55951 strain); experiment: as above; assay type: cell-based; conditions: 1 min, final concentration 500 ppm, 1 minute contact, read-out: Colony formation inhibition rate (%)
Method: as §1

[6] = test system: M. restricta (IMF55992 strain); experiment: as above; assay type: cell-based; conditions: 1 min, final concentration 500 ppm, 1 minute contact, read-out: Colony formation inhibition rate (%)
Method: as §1

[7] = test system: Arthroderma vanbreuseghemii (TIMM2789); experiment: Antifungal activity test, minimum inhibitory concentration (Test Example 9); assay type: cell-based; conditions: Trichophyton mentagrophytes, Sabouraud media, 28° C. for 72 hours, read-out: Minimum inhibitory concentration (MIC100)
Method: Test Example 9: Antifungal Activity Test Test Compound: Compound No. 1 Test Microbial Strain: Arthroderma Vanbreuseghemii (TIMM2789) The microbial strain was cultured in a Sabouraud medium containing 500 µg/mL of cycloheximide and 50 µg/mL of chloramphenicol at 28° C. for 8 days, then spores were collected in physiological saline containing Tween80 (0.05% (v/v)), this was filtered through a cell strainer (φ40 µm), the spores were recovered from the filtrate by centrifugation (3500 rpm, 5 minutes) and washed twice with physiological saline, and then a spore suspension was prepared (1 × 10^7 spores/mL). 10 µL of the spore suspension was inoculated into Sabouraud media to which compound No. 1 dissolved in DMSO was added to have various concentrations.

SMILES: Cc1ccc(-c2nc(C#N)[nH]c2Cl)cc1Cl [Compound No. 6, 5-chloro-4-(3-chloro-4-methylphenyl)-1H-imidazole-2-carbonitrile]
MFC ([1]; treatment time 24 Hours): 50 µg/mL (≈ 198 µM)
MFC ([1]; treatment time 96 Hours): 10 µg/mL (≈ 39.7 µM)
Microbial count (cfu/ml) 7 Days after treatment ([2]; left ear canal swab): 20 cfu/ml
Microbial count (cfu/ml) Immediately before treatment ([2]; left ear canal swab): 5,300 cfu/ml
Total score (redness, earwax, itching, rash) 7 Days after treatment ([2]; left ear): 0
Improvement rate (%) of microbial count ([2]; left ear): 99.6%
Improvement rate (%) of symptom total score ([2]; left ear): 100%
Total score (redness, earwax, itching, rash) Immediately before treatment ([2]; left ear): 3
Microbial count (cfu/ml) 7 Days after treatment ([2]; right ear canal swab): 20 cfu/ml
Microbial count (cfu/ml) Immediately before treatment ([2]; right ear canal swab): 2,800 cfu/ml
Total score (redness, earwax, itching, rash) 7 Days after treatment ([2]; right ear): 0
Improvement rate (%) of microbial count ([2]; right ear): 99.3%
Improvement rate (%) of symptom total score ([2]; right ear): 100%
Total score (redness, earwax, itching, rash) Immediately before treatment ([2]; right ear): 3

MIC [7]: 10 µg/mL (≈ 45.9 µM)
SMILES: Cc1ccc(-c2nc(C#N)[nH]c2Cl)cc1 [Compound No. 1, 5-Chloro-4-(4-methylphenyl)-1H-imidazole-2-carbonitrile]
Microbial count (cfu/ml) 7 Days after treatment ([2]; left ear canal swab): 30 cfu/ml
Microbial count (cfu/ml) Immediately before treatment ([2]; left ear canal swab): 900 cfu/ml
Total score (redness, earwax, itching, rash) 7 Days after treatment ([2]; left ear): 1
Improvement rate (%) of microbial count ([2]; left ear): 96.7%
Improvement rate (%) of symptom total score ([2]; left ear): 67%
Total score (redness, earwax, itching, rash) Immediately before treatment ([2]; left ear): 3
Microbial count (cfu/ml) 7 Days after treatment ([2]; right ear canal swab): 30 cfu/ml
Microbial count (cfu/ml) Immediately before treatment ([2]; right ear canal swab): 1,300 cfu/ml
Total score (redness, earwax, itching, rash) 7 Days after treatment ([2]; right ear): 1
Improvement rate (%) of microbial count ([2]; right ear): 97.7%
Improvement rate (%) of symptom total score ([2]; right ear): 67%
Total score (redness, earwax, itching, rash) Immediately before treatment ([2]; right ear): 3
inhibition at 500 ppm [3]: 97%
inhibition at 500 ppm [4]: 100%
inhibition at 500 ppm [5]: 100%
inhibition at 500 ppm [6]: 100%
